“Also recorded” adds a separate entry of the source.
Experiments:
MEF wt (NS) = experiment: Senolytic screening, specificity on non-senescent MEF wt; format: cell-based, murine; details: 10 μM, 48 hours; versus ABT-263
Experimental: (§1) The platform which was devised in our laboratory is capable of identifying the senolytic compounds based upon two parameters: (1) the inhibition of the cell viability and (2) the removal of the positive cells to the assay of β-Galactosidase (SA-β-Gal, senescence marker). As positive control of the compounds at the test stage, we included ABT-263, previously identified as senolytic compound 2. At last, the senolytic potentiality of these compounds is tested on murine embryonic fibroblasts (MEF) Pten−/− and WT.
(§2) Technically the screening was performed in three passages; • Before treatment, to the culture medium of MEF (DMEM, 10%FBS, 5% P/S) Docetaxel is added, at the concentration of 750 nM for 48 hours. […] The cells were seeded in a 96-well plate at a density of 5000 cells per well. In the more external wells PBS was added, so as to be able to maintain the correct humidity inside the plate. • At last, 24 hours after the seeding of cells, the compounds of our study were added to the cells for 48 hours at the concentration of 10 μM. […]

[1] = tested on: MEFs in replicative senescence (RS); experiment: Replicative senescence assay in MEFs, Crystal Violet and SA-β-Gal; format: cell-based, murine; details: 10 μM, passage 8, Crystal Violet and SA-β-Gal
Experimental: (§3) The senolytic activity of Alectinib was validated in the context of the replicative senescence: assay which mimes the natural process of cell ageing due to the shortening of telomers. The MEFs were seeded in 10 cm2-plates (3×10^5 cells/plate). Every 3 days these cells were detached by means of trypsin, counted with Trypan Blu and plated in the same number. This process was performed for 8 passages before starting the senolytic treatment. At passages 8 and 9 the senescence of these cells was tested by means of the assay of SA-β-Gal (about 78% of senescent cells).
(§4) At passage 8, the non-senescent cells (NS) and cells in replicative senescence (RS) were seeded in a 96-well plate (5000 cells/well) and treated at different concentrations of Alectinib.

non-senescent (NS) MEFs = experiment: Replicative senescence assay in MEFs, non-senescent cells; format: cell-based, murine; details: 10 μM, Crystal Violet and SA-β-Gal
Experimental: as §3, §4

MEF Pten−/− (PICS) = experiment: Senolytic screening in PICS (Docetaxel-induced senescent MEF Pten−/−), cell viability and SA-β-Gal; format: cell-based, murine; details: 10 μM, 48 hours, MEF Pten−/− pre-treated with Docetaxel 750 nM; versus ABT-263 positive control
Experimental: as §1, §2

PC3 = experiment: Removal of Palbociclib-induced senescent PC3 prostate cancer cells, Crystal Violet and SA-β-Gal; format: cell-based, human; details: 5 μM for 48 hours, senescence induced with Palbociclib
Experimental: (§5) Subsequently we tested the effects of Alectinib on cancer cell lines pre-treated with stimulator of senescence. In the specific case we used TrampC1 and PC3, two cell lines of prostate cancer, respectively murine and human lines. With the purpose of inducing the senescence in these cells, we used Palbociclib, a specific inhibitor of […] currently used in clinic in the treatment of breast cancer. Once the cells started senescence, Alectinib was added to the culture medium at the concentration of 5 μM for 48 hours.

[2] = tested on: IMR90 in replicative senescence (RS); experiment: Replicative senescence assay in human fibroblasts IMR90, Crystal Violet and SA-β-Gal; format: cell-based; details: 2.5 μM, passage 33, Crystal Violet and SA-β-Gal
Experimental: (§6) This assay was validated even with human fibroblasts, IMR90. Analogously to the protocol used for the MEFs, the IMR90 were seeded in 10 cm2-wide plates (3×10^5 cells/plate). Every 3 days these cells were detached by means of trypsin, counted with Trypan Blu and plated in the same number. This process was performed for 33 passages before starting the senolytic treatment. At passages 33 and 34 the senescence of these cells was tested by means of the assay of SA-β-Gal (about 78% of senescent cells).
(§7) At passage 33 non-senescent (NS) cells and cells in replicative senescence (RS) were seeded in a 96-well plate (5000 cells/well) and treated with different concentrations of Alectinib.

non-senescent (NS) IMR90 = experiment: Replicative senescence assay in IMR90, non-senescent cells; format: cell-based, human; details: 2.5 μM, Crystal Violet and SA-β-Gal
Experimental: as §6, §7

TrampC1 = experiment: Removal of Palbociclib-induced senescent TrampC1 prostate cancer cells, Crystal Violet and SA-β-Gal; format: cell-based, murine; details: 5 μM for 48 hours, senescence induced with Palbociclib
Experimental: as §5

MEF Pten−/− = experiment: Induction of senescence in MEF Pten−/− by Docetaxel; format: cell-based, murine; details: 750 nM for 48 hours
Experimental: (§8) Technically the screening was performed in three passages; • Before treatment, to the culture medium of MEF (DMEM, 10%FBS, 5% P/S) Docetaxel is added, at the concentration of 750 nM for 48 hours. […] The cells were seeded in a 96-well plate at a density of 5000 cells per well. In the more external wells PBS was added, so as to be able to maintain the correct humidity inside the plate. • At last, 24 hours after the seeding of cells, the compounds of our study were added to the cells for 48 hours at the concentration of 10 μM.

MEF WT = experiment: Effect of Docetaxel on cell cycle of MEF WT; format: cell-based, murine; details: 750 nM for 48 hours
Experimental: as §8

Compound | selectivity: impact on MEF wt (NS) (MEF wt (NS)) | removal of senescent cells (RS MEFs) [1] | impact on NS cells (MEFs) (non-senescent (NS) MEFs) | removal of senescent cells (PICS) (MEF Pten−/− (PICS)) | removal of senescent cells (PC3) (PC3) | removal of senescent cells (RS IMR90) [2] | impact on NS cells (IMR90) (non-senescent (NS) IMR90) | removal of senescent cells (TrampC1) (TrampC1) | senescence of MEF Pten−/− (MEF Pten−/−) [%] | cell cycle of MEF WT (MEF WT)
CCc1cc2c(cc1N1CCC(N3CCOCC3)CC1)C(C)(C)c1[nH]c3cc(C#N)ccc3c1C2=O [Alectinib] | non-senescent, NS, cells are kept vital; also recorded: more selective by impacting less seriously on MEF wt (NS) | capable of removing the senescent cells | without killing the non-senescent (NS) cells; also recorded: without impacting on the cells NS | strong capability in killing the PICS cells; also recorded: effectiveness comparable to ABT-263 | capability of removing the senescent cells in both cell lines; also recorded: capable of removing successfully the senescent cells | capable of removing the senescent cells | without killing the non-senescent (NS) cells; also recorded: without impacting on the NS cells | capability of removing the senescent cells in both cell lines; also recorded: capable of removing successfully the senescent cells |  | 
CC(=O)O[C@@]12CO[C@@H]1C[C@H](O)[C@@]1(C)C(=O)[C@H](O)C3=C(C)[C@@H](OC(=O)[C@H](O)[C@@H](NC(=O)OC(C)(C)C)c4ccccc4)C[C@@](O)([C@@H](OC(=O)c4ccccc4)[C@H]21)C3(C)C [Docetaxel] |  |  |  |  |  |  |  |  | 80 | without altering the cell cycle of MEF WT

— patent US20200405727A1, “NEW ALK INHIBITOR SENOLYTIC DRUGS” (FONDAZIONE PER L'ISTITUTO ONCOLOGICO DI RICERCA (IOR), priority 2018, published 2020)
